Experimental data from ChEMBL document CHEMBL1201862, “PubChem BioAssay data set” (2004).
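In this assay, cells in 96-well plates receive the compound at five concentrations for 48 hours. Endpoints are linearly interpolated between the surrounding concentrations. Here, GI50 denotes the concentration required for 50% inhibition of growth.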 The source made the active and inactive calls. No stated cut-off is given here; in the data, active = GI50 up to about 1.1 µM and inactive = higher. Non-standard residues stand in square brackets, D forms with d. Residues, ends and D or L forms follow the SMILES beside them.

What was measured:
Assay in all cases: NCI-60 cell line screen, 48 h
[1] = tested on: T47D
[2] = tested on: K562
[3] = tested on: Malme-3M
[4] = tested on: MOLT-4
[5] = tested on: OVCAR-8
[6] = tested on: SF-268
[7] = tested on: TK-10
[8] = tested on: COLO 205
[9] = tested on: DU-145
[10] = tested on: MDA-MB-231
[11] = tested on: Hs-578T
[12] = tested on: HOP-92
[13] = tested on: 786-0
[14] = tested on: NCI-H460
[15] = tested on: SK-MEL-2
[16] = tested on: CAKI-1
[17] = tested on: IGROV-1
[18] = tested on: ACHN
[19] = tested on: MDA-MB-435
[20] = tested on: MCF7

Compound	GI50 [1]	GI50 [2]	GI50 [3]	GI50 [4]	GI50 [5]	GI50 [6]	GI50 [7]	GI50 [8]	GI50 [9]	GI50 [10]	GI50 [11]	GI50 [12]	GI50 [13]	GI50 [14]	GI50 [15]	GI50 [16]	GI50 [17]	GI50 [18]	GI50 [19]	GI50 [20]
O=C1CNc2cc(N3CCOCC3)ccc2N1	> 100 µM (inactive)	> 100 µM (inactive)	> 100 µM (inactive)	> 100 µM (inactive)	> 100 µM (inactive)	> 100 µM (inactive)	> 100 µM (inactive)	> 100 µM (inactive)	> 100 µM (inactive)	> 100 µM (inactive)	57.3 µM (inactive)	> 100 µM (inactive)	> 100 µM (inactive)	> 100 µM (inactive)	> 100 µM (inactive)	> 100 µM (inactive)	> 100 µM (inactive)	> 100 µM (inactive)	> 100 µM (inactive)	–
CCOC(=O)c1ccc(-n2cnc(-c3ccc([N+](=O)[O-])cc3)c2)cc1	95.7 µM (inactive)	> 100 µM (inactive)	80.7 µM (inactive)	> 100 µM (inactive)	> 100 µM (inactive)	56.2 µM (inactive)	33.9 µM (inactive)	> 100 µM (inactive)	> 100 µM (inactive)	> 100 µM (inactive)	> 100 µM (inactive)	–	> 100 µM (inactive)	> 100 µM (inactive)	> 100 µM (inactive)	> 100 µM (inactive)	> 100 µM (inactive)	> 100 µM (inactive)	> 100 µM (inactive)	72.9 µM (inactive)
CSCC[C@H](NC(=O)[C@@H](N)CC(N)=O)C(=O)N[C@@H](Cc1c[nH]c2ccccc12)C(=O)N[C@@H](CCC(N)=O)C(=O)N[C@@H](CCC(=O)O)C(=O)N[C@H](C(=O)NCC(=O)N[C@@H](CCCCN)C(=O)N[C@H](C)C(=O)O)C(C)C (H-NMWQEVGK[dA]-OH)	> 100 µM (inactive)	> 100 µM (inactive)	> 100 µM (inactive)	> 100 µM (inactive)	> 100 µM (inactive)	> 100 µM (inactive)	> 100 µM (inactive)	> 100 µM (inactive)	> 100 µM (inactive)	> 100 µM (inactive)	> 100 µM (inactive)	> 100 µM (inactive)	> 100 µM (inactive)	> 100 µM (inactive)	–	> 100 µM (inactive)	> 100 µM (inactive)	> 100 µM (inactive)	> 100 µM (inactive)	> 100 µM (inactive)
COc1ccc(-c2c(N)n(-c3cccc(C(=O)O)c3)c(=O)c3cc([N+](=O)[O-])ccc23)cc1	> 100 µM (inactive)	> 100 µM (inactive)	–	> 100 µM (inactive)	> 100 µM (inactive)	> 100 µM (inactive)	> 100 µM (inactive)	–	> 100 µM (inactive)	–	> 100 µM (inactive)	–	> 100 µM (inactive)	> 100 µM (inactive)	> 100 µM (inactive)	> 100 µM (inactive)	> 100 µM (inactive)	> 100 µM (inactive)	> 100 µM (inactive)	> 100 µM (inactive)
O=C(O)CNn1c(SCC(=O)O)nnc(/C=C/c2c(O)ccc3ccccc23)c1=O	19.5 µM (inactive)	25.5 µM (inactive)	40.3 µM (inactive)	–	3.79 µM (inactive)	24.4 µM (inactive)	–	34.4 µM (inactive)	3.16 µM (inactive)	–	12.8 µM (inactive)	–	30.3 µM (inactive)	4.91 µM (inactive)	61.8 µM (inactive)	29.5 µM (inactive)	0.15 µM (active)	33.8 µM (inactive)	75.7 µM (inactive)	24 µM (inactive)
CC(C)=CCNc1ncnc2c1ncn2CCC#N	> 100 µM (inactive)	> 100 µM (inactive)	> 100 µM (inactive)	> 100 µM (inactive)	> 100 µM (inactive)	> 100 µM (inactive)	> 100 µM (inactive)	> 100 µM (inactive)	> 100 µM (inactive)	> 100 µM (inactive)	> 100 µM (inactive)	> 100 µM (inactive)	> 100 µM (inactive)	> 100 µM (inactive)	–	–	> 100 µM (inactive)	> 100 µM (inactive)	> 100 µM (inactive)	> 100 µM (inactive)
CO/N=C(\C)CCC#Cc1ccccc1C(=O)OC	> 10 µM (inactive)	> 10 µM (inactive)	> 10 µM (inactive)	> 10 µM (inactive)	> 10 µM (inactive)	> 10 µM (inactive)	> 10 µM (inactive)	> 10 µM (inactive)	> 10 µM (inactive)	> 10 µM (inactive)	> 10 µM (inactive)	–	> 10 µM (inactive)	> 10 µM (inactive)	> 10 µM (inactive)	> 10 µM (inactive)	> 10 µM (inactive)	> 10 µM (inactive)	> 10 µM (inactive)	> 10 µM (inactive)
O=C(O[C@H]1[C@@H](O)[C@H](n2cnc3c(Cl)ncnc32)O[C@@H]1COC(c1ccccc1)(c1ccccc1)c1ccccc1)c1ccccc1	3.98 µM (inactive)	3.6 µM (inactive)	–	3.04 µM (inactive)	25.4 µM (inactive)	15.4 µM (inactive)	45.2 µM (inactive)	15.9 µM (inactive)	1.91 µM (inactive)	21.2 µM (inactive)	2.9 µM (inactive)	15.8 µM (inactive)	14.9 µM (inactive)	17.5 µM (inactive)	21.2 µM (inactive)	2.62 µM (inactive)	15.9 µM (inactive)	15.7 µM (inactive)	26.8 µM (inactive)	4.91 µM (inactive)
